{"source": "ChEMBL document CHEMBL3882245", "about": "“Novel aminopyridine derivatives having aurora a selective inhibitory action” (2008)", "assay": "Cytotoxicity against human HeLaS3 cells assessed as cell growth inhibition at 0.3 nM after 3 days by WST-8 assay", "type": "functional", "conditions": "HeLa S3, 72 h, read-out: GI", "data": [{"molecule": "CC(=O)O[C@@]12CO[C@@H]1C[C@H](O)[C@@]1(C)C(=O)[C@H](O)C3=C(C)[C@@H](OC(=O)[C@H](O)[C@@H](NC(=O)OC(C)(C)C)c4ccccc4)C[C@@](O)([C@@H](OC(=O)c4ccccc4)[C@H]21)C3(C)C", "note": "[DOCETAXEL ANHYDROUS]", "values": [{"measurement": "inhibition of growth at 0.0003 µM", "value": "25.6 to 53.4", "unit": "%"}]}]}
